pIC50: −log10 of the molar value.
Target: CREBBP (Homo sapiens (Human), UniProt Q92793)
Assay: In vitro enzyme inhibition assay - CREBBP inhibition (AlphaScreen, biotinylated H4-tetraacetyl peptide)
Format: binding
Conditions: Table 28; AlphaScreen, H4-tetraacetyl peptide
Outline: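 His-tagged CREBBP expressed in E. coli (50 nM final) incubated with biotinylated H4K5/8/12/16(Ac) peptide (20 nM final) in HEPES pH 7.3 buffer, 0.4% DMSO, 20 min at room temperature.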

CREBBP, sequence (Q92793 1081-1197): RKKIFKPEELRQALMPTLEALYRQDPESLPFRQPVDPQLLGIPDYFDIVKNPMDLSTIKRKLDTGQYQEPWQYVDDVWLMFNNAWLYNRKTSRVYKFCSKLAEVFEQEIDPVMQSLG

pIC50	Structure (SMILES)
> 6.30	COC(C)CS(=O)(=O)Nc1cc(-c2cc(C)c(=O)n(C)c2)nc(Oc2c(C)cccc2C)n1 (centres unmarked) [Example 85, N-(6-(1,5-dimethyl-6-oxo-1,6-dihydropyridin-3-yl)-2-(2,6-dimethylphenoxy)pyrimidin-4-yl)-2-methoxypropane-1-sulfonamide]
> 6.30	CCCCS(=O)(=O)Nc1cc(-c2cc(F)c(=O)n(C)c2)nc(Oc2c(C)cccc2C)n1 [Example 86, N-(2-(2,6-dimethylphenoxy)-6-(5-fluoro-1-methyl-6-oxo-1,6-dihydropyridin-3-yl)pyrimidin-4-yl)butane-1-sulfonamide]
> 6.30	CCCCS(=O)(=O)Nc1cc(-c2cc(C)c(=O)n(C)c2)nc(Oc2c(C)nn(C)c2C)n1 [Example 88, N-(6-(1,5-dimethyl-6-oxo-1,6-dihydropyridin-3-yl)-2-((1,3,5-trimethyl-1H-pyrazol-4-yl)oxy)pyrimidin-4-yl)butane-1-sulfonamide]
> 6.30	CCCCS(=O)(=O)Nc1cc(-c2cn(C)c(=O)cc2C)nc(Oc2c(C)cccc2C)n1 [Example 89, N-(6-(1,4-dimethyl-6-oxo-1,6-dihydropyridin-3-yl)-2-(2,6-dimethylphenoxy)pyrimidin-4-yl)butane-1-sulfonamide]
> 6.30	Cc1cc(-c2cc(NS(=O)(=O)C(C)C)cc(Oc3ccc(F)cc3F)n2)cn(C)c1=O [Example 90, N-(6-(2,4-difluorophenoxy)-1′,5′-dimethyl-6′-oxo-1′,6′-dihydro-[2,3′-bipyridin]-4-yl)propane-2-sulfonamide]
> 6.30	Cc1cc(-c2cc(NS(=O)(=O)C(C)C)nc(Nc3ccc(F)cc3F)n2)cn(C)c1=O [Example 91, N-(2-((2,4-difluorophenyl)amino)-6-(1,5-dimethyl-6-oxo-1,6-dihydropyridin-3-yl)pyrimidin-4-yl)propane-2-sulfonamide]
> 6.30	CCCS(=O)(=O)Nc1cc(-c2cc(C)c(=O)n(C)c2)cc(Oc2c(C)cccc2C)n1 [Example 92, N-(6′-(2,6-dimethylphenoxy)-1,5-dimethyl-6-oxo-1,6-dihydro-[3,4′-bipyridin]-2′-yl)propane-1-sulfonamide]
5.30 to 6.30	Cc1cc(-c2cc(NS(=O)(=O)C(C)C)nc(Cc3ccc(F)cc3F)n2)cn(C)c1=O [Example 93, Propane-2-sulfonic acid [2-(2,4-difluoro-benzyl)-6-(1,5-dimethyl-6-oxo-1,6-dihydro-pyridin-3-yl)-pyrimidin-4-yl]-amide]
> 6.30	CCS(=O)(=O)Nc1cc(-c2cc(C)c(=O)n(C)c2)nc(Cc2ccc(F)cc2F)n1 [Example 94, Ethanesulfonic acid [2-(2,4-difluoro-benzyl)-6-(1,5-dimethyl-6-oxo-1,6-dihydro-pyridin-3-yl)-pyrimidin-4-yl]-amide]
> 6.30	Cc1cc(-c2cc(CS(=O)(=O)C(C)C)nc(Oc3ccc(F)cc3F)n2)cn(C)c1=O [Example 95, 5-[2-(2,4-Difluoro-phenoxy)-6-(propane-2-sulfonylmethyl)-pyrimidin-4-yl]-1,3-dimethyl-1H-pyridin-2-one]
> 6.30	CCS(=O)(=O)Cc1cc(-c2cc(C)c(=O)n(C)c2)nc(Oc2ccc(F)cc2F)n1 [Example 96, 5-[2-(2,4-Difluoro-phenoxy)-6-ethanesulfonylmethyl-pyrimidin-4-yl]-1,3-dimethyl-1H-pyridin-2-one]
5.30 to 6.30	CCCCS(=O)(=O)Nc1cc(-c2cn(C)c(=O)c3ccccc23)nc(Oc2c(C)cccc2C)n1 [Example 97, Butane-1-sulfonic acid [2-(2,6-dimethyl-phenoxy)-6-(2-methyl-1-oxo-1,2-dihydro-isoquinolin-4-yl)-pyrimidin-4-yl]-amide]
> 6.30	CCCCS(=O)(=O)Nc1cc(-c2cc(C)c(=O)n(C)c2)nc(Oc2c(C)cc(F)cc2Cl)n1 [Example 98, Butane-1-sulfonic acid [2-(2-chloro-4-fluoro-6-methyl-phenoxy)-6-(1,5-dimethyl-6-oxo-1,6-dihydro-pyridin-3-yl)-pyrimidin-4-yl]-amide]
> 6.30	CCCS(=O)(=O)Nc1cc(-c2cc(C)c(=O)n(C)c2)nc(Oc2c(C)cc(F)cc2Cl)n1 [Example 99, Propane-1-sulfonic acid [2-(2-chloro-4-fluoro-6-methyl-phenoxy)-6-(1,5-dimethyl-6-oxo-1,6-dihydro-pyridin-3-yl)-pyrimidin-4-yl]-amide]
> 6.30	Cc1cc(F)cc(Cl)c1Oc1nc(NS(=O)(=O)C(C)C)cc(-c2cc(C)c(=O)n(C)c2)n1 [Example 100, Propane-2-sulfonic acid [2-(2-chloro-4-fluoro-6-methyl-phenoxy)-6-(1,5-dimethyl-6-oxo-1,6-dihydro-pyridin-3-yl)-pyrimidin-4-yl]-amide]
> 6.30	CCCS(=O)(=O)Nc1cc(-c2cc(C)c(=O)n(C)c2)nc(Oc2c(C)cccc2Cl)n1 [Example 101, Propane-1-sulfonic acid [2-(2-chloro-6-methyl-phenoxy)-6-(1,5-dimethyl-6-oxo-1,6-dihydro-pyridin-3-yl)-pyrimidin-4-yl]-amide]

pIC50	Structure (SMILES)
> 6.30	CCCCS(=O)(=O)Nc1cc(-c2ccc(=O)n(C)c2)nc(Oc2c(C)cccc2Cl)n1 [Example 102, Butane-1-sulfonic acid [2-(2-chloro-6-methyl-phenoxy)-6-(1-methyl-6-oxo-1,6-dihydro-pyridin-3-yl)-pyrimidin-4-yl]-amide]
> 6.30	CCCS(=O)(=O)Nc1cc(-c2ccc(=O)n(C)c2)nc(Oc2c(C)cccc2Cl)n1 [Example 103, Propane-1-sulfonic acid [2-(2-chloro-6-methyl-phenoxy)-6-(1-methyl-6-oxo-1,6-dihydro-pyridin-3-yl)-pyrimidin-4-yl]-amide]
> 6.30	Cc1cccc(Cl)c1Oc1nc(NS(=O)(=O)C(C)C)cc(-c2ccc(=O)n(C)c2)n1 [Example 104, Propane-2-sulfonic acid [2-(2-chloro-6-methyl-phenoxy)-6-(1-methyl-6-oxo-1,6-dihydro-pyridin-3-yl)-pyrimidin-4-yl]-amide]
> 6.30	COc1cc(-c2cc(NS(=O)(=O)C(C)C)nc(Oc3c(C)cccc3C)n2)cn(C)c1=O [Example 105, N-(2-(2,6-dimethylphenoxy)-6-(5-methoxy-1-methyl-6-oxo-1,6-dihydropyridin-3-yl)pyrimidin-4-yl)propane-2-sulfonamide]
> 6.30	CCCCS(=O)(=O)Nc1cc(-c2cc(OC)c(=O)n(C)c2)nc(Oc2c(C)cccc2C)n1 [Example 106, N-(2-(2,6-dimethylphenoxy)-6-(5-methoxy-1-methyl-6-oxo-1,6-dihydropyridin-3-yl)pyrimidin-4-yl)butane-1-sulfonamide]
> 6.30	CCCS(=O)(=O)Nc1cc(Oc2c(C)cccc2Cl)nc(-c2cc(C)c(=O)n(C)c2)n1 [Example 107, Propane-1-sulfonic acid [6-(2-chloro-6-methyl-phenoxy)-2-(1,5-dimethyl-6-oxo-1,6-dihydro-pyridin-3-yl)-pyrimidin-4-yl]-amide]
> 6.30	CCCCS(=O)(=O)Nc1cc(-c2ccc(=O)n(C)c2)nc(Oc2c(C)cccc2C#N)n1 [Example 108, Butane-1-sulfonic acid [2-(2-cyano-6-methyl-phenoxy)-6-(1-methyl-6-oxo-1,6-dihydro-pyridin-3-yl)-pyrimidin-4-yl]-amide]
> 6.30	CCCS(=O)(=O)Nc1cc(-c2ccc(=O)n(C)c2)nc(Oc2c(C)cccc2C#N)n1 [Example 109, Propane-1-sulfonic acid [2-(2-cyano-6-methyl-phenoxy)-6-(1-methyl-6-oxo-1,6-dihydro-pyridin-3-yl)-pyrimidin-4-yl]-amide]
> 6.30	Cc1cccc(C#N)c1Oc1nc(NS(=O)(=O)C(C)C)cc(-c2ccc(=O)n(C)c2)n1 [Example 110, Propane-2-sulfonic acid [2-(2-cyano-6-methyl-phenoxy)-6-(1-methyl-6-oxo-1,6-dihydro-pyridin-3-yl)-pyrimidin-4-yl]-amide]
5.30 to 6.30	CCCS(=O)(=O)Nc1cc(-c2cc(C)c(=O)n(C)c2)nc(Oc2ccncc2C)n1 [Example 111, Propane-1-sulfonic acid [6-(1,5-dimethyl-6-oxo-1,6-dihydro-pyridin-3-yl)-2-(3-methyl-pyridin-4-yloxy)-pyrimidin-4-yl]-amide]
> 6.30	CCCS(=O)(=O)Nc1cc(-c2cc(C)c(=O)n(C)c2)nc(Oc2cnccc2C)n1 [Example 112, Propane-1-sulfonic acid [6-(1,5-dimethyl-6-oxo-1,6-dihydro-pyridin-3-yl)-2-(4-methyl-pyridin-3-yloxy)-pyrimidin-4-yl]-amide]
> 6.30	CCCCS(=O)(=O)Nc1cc(-c2cc(Cl)c(=O)n(C)c2)nc(Oc2c(C)cccc2C#N)n1 [Example 114, Butane-1-sulfonic acid [6-(5-chloro-1-methyl-6-oxo-1,6-dihydro-pyridin-3-yl)-2-(2-cyano-6-methyl-phenoxy)-pyrimidin-4-yl]-amide]
> 6.30	Cc1cccc(C#N)c1Oc1nc(NS(=O)(=O)CCCF)cc(-c2cc(C)c(=O)n(C)c2)n1 [Example 115, 3-Fluoro-propane-1-sulfonic acid [2-(2-cyano-6-methyl-phenoxy)-6-(1,5-dimethyl-6-oxo-1,6-dihydro-pyridin-3-yl)-pyrimidin-4-yl]-amide]
> 6.30	CCS(=O)(=O)Nc1cc(-c2ccc(=O)n(C)c2)nc(Oc2c(C)cccc2F)n1 [Example 116, Ethanesulfonic acid [2-(2-fluoro-6-methyl-phenoxy)-6-(1-methyl-6-oxo-1,6-dihydro-pyridin-3-yl)-pyrimidin-4-yl]-amide]
> 6.30	Cc1cccc(F)c1Oc1nc(NS(=O)(=O)C(C)C)cc(-c2cc(Cl)c(=O)n(C)c2)n1 [Example 117, Propane-2-sulfonic acid [6-(5-chloro-1-methyl-6-oxo-1,6-dihydro-pyridin-3-yl)-2-(2-fluoro-6-methyl-phenoxy)-pyrimidin-4-yl]-amide]
> 6.30	Cc1cccc(F)c1Oc1nc(NS(=O)(=O)C(C)C)cc(-c2ccc(=O)n(C)c2)n1 [Example 119, Propane-2-sulfonic acid [2-(2-fluoro-6-methyl-phenoxy)-6-(1-methyl-6-oxo-1,6-dihydro-pyridin-3-yl)-pyrimidin-4-yl]-amide]
